Measured values reported in US20260231939A1, “ARTHROPOD CONTROL COMPOSITIONS” (Firmenich SA, priority 2022, published 2026).

Tested on: Aedes aegypti
Experiment: Warm Body assay, mosquito landings on the baited warm body
Type: in vivo
Conditions: 10 mg/mL (1 mg absolute applied)
Experimental: The controlling effect according to the present invention was assessed using an adapted Warm Body assay as defined in Kröber T, Kessler S, Frei J, Bourquin M, Guerin P M. 2010. J Am Mosq Control Assoc. 26:381-386. In this in-vitro assay the number of mosquito landing on a warm body, simulating an attractive host treated with the tested stimuli, was measured in order to assess the repellence effect.
The published protocol has been adapted as the switch from Anopheles gambiae to Ae. aegypti led to a decrease of mosquitoes placed in the tested cage due to the size difference (i.e. 30 mosquitoes instead of 50) and to an increase of lighting since Ae. aegypti is a diurnal mosquitoes (i.e. 150 lux instead of 4 lux).
On the sandblasted glass Petri dish covering the warm body (28.3 cm^2), 100 μL of the compounds diluted at different concentrations in ethanol was applied. The number of mosquito landing on the warm body was counted for each stimulus. Number of landings on pure ethanol (solvent) control treatment was used to normalize the data and calculate the percentage of repellence.

`C=CC1CCCC(=O)O1` (stereo not drawn) [6-ethenyloxan-2-one] was tested, and the “mosquitoes that still land on the warm body” value was “prevents any mosquito from landing”.
`CCC1CCCC(=O)O1` (stereo not drawn) [6-ethyloxan-2-one] was tested, and the “mosquitoes that still land on the warm body” value was greater than 50%.

Same assay, conditions: Aedes aegypti, more complex lactones (types A, B, C), 0.016 mg/mL; read-out: Percentage of repellence of mosquitoes landing on the warm body

First: O=C1CCC2(CCCCC2)O1 [1-oxaspiro[4.5]decan-2-one]
Second: O=C1CCC2CCCCC2O1 (stereo not drawn) [3,4,4a,5,6,7,8,8a-octahydrochromen-2-one]
The pest or weed control at 16 µg/mL of the first is higher: 54% for the first, 35% for the second.

First: CCCCCC1C=CC(=O)O1 (stereo not drawn) [2-pentyl-2H-furan-5-one]
Second: CCCCCC1OC(=O)CC1C (stereo not drawn) [4-methyl-5-pentyloxolan-2-one]
The pest or weed control at 16 µg/mL of the first is lower: 0% for the first, 36% for the second.

Compared with `CCC=C1OC(=O)c2ccccc21` [3-propylidene-2-benzofuran-1-one], `CCCCCC1=COC(=O)CC1` [5-pentyl-3,4-dihydro-2H-pyran-2-one] is lower in pest or weed control at 16 µg/mL: 83% for the first, 60% for the second.

Compared with `CC1(C)CC=CC2(C)OC(=O)CC12` (stereo not drawn) [4,4,7a-trimethyl-3a,5-dihydro-3H-1-benzofuran-2-one], `CCCCCCC1(C)CCC(=O)O1` (stereo not drawn) [5-hexyl-5-methyloxolan-2-one] is lower in pest or weed control at 16 µg/mL: 83% for the first, 43% for the second.

Compared with `CCCCCCCC1=COC(=O)CC1` [5-heptyl-3,4-dihydro-2H-pyran-2-one], `CCCCCCC1=COC(=O)CC1` [5-hexyl-3,4-dihydro-2H-pyran-2-one] is higher in pest or weed control at 16 µg/mL: 0% for the first, 11% for the second.

Same assay, conditions: Aedes aegypti, more complex lactones (types A, B, C), 0.4 mg/mL; read-out: Percentage of repellence of mosquitoes landing on the warm body

First: O=C1CCC2(CCCCC2)O1 [1-oxaspiro[4.5]decan-2-one]
Second: O=C1CCC2CCCCC2O1 (stereo not drawn) [3,4,4a,5,6,7,8,8a-octahydrochromen-2-one]
The pest or weed control at 400 µg/mL of the first is lower: 79% for the first, 90% for the second.

First: CCCCCC1C=CC(=O)O1 (stereo not drawn) [2-pentyl-2H-furan-5-one]
Second: CCCCCC1OC(=O)CC1C (stereo not drawn) [4-methyl-5-pentyloxolan-2-one]
The pest or weed control at 400 µg/mL of the first is lower: 53% for the first, 72% for the second.

Compared with `CCC=C1OC(=O)c2ccccc21` [3-propylidene-2-benzofuran-1-one], `CCCCCC1=COC(=O)CC1` [5-pentyl-3,4-dihydro-2H-pyran-2-one] is lower in pest or weed control at 400 µg/mL: 93% for the first, 69% for the second.

First: CC1(C)CC=CC2(C)OC(=O)CC12 (stereo not drawn) [4,4,7a-trimethyl-3a,5-dihydro-3H-1-benzofuran-2-one]
Second: CCCCCCC1(C)CCC(=O)O1 (stereo not drawn) [5-hexyl-5-methyloxolan-2-one]
The pest or weed control at 400 µg/mL of the first is higher: 92% for the first, 75% for the second.

Compared with `CCCCCCCC1=COC(=O)CC1` [5-heptyl-3,4-dihydro-2H-pyran-2-one], `CCCCCCC1=COC(=O)CC1` [5-hexyl-3,4-dihydro-2H-pyran-2-one] is lower in pest or weed control at 400 µg/mL: 95% for the first, 75% for the second.

Same assay, conditions: Aedes aegypti, more complex lactones (types A, B, C), 10 mg/mL; read-out: Percentage of repellence of mosquitoes landing on the warm body

`O=C1CCC2(CCCCC2)O1` [1-oxaspiro[4.5]decan-2-one] and `O=C1CCC2CCCCC2O1` (stereo not drawn) [3,4,4a,5,6,7,8,8a-octahydrochromen-2-one] are the same in pest or weed control at 10000 µg/mL: 100% for the first, 100% for the second.

`CCCCCC1C=CC(=O)O1` (stereo not drawn) [2-pentyl-2H-furan-5-one] and `CCCCCC1OC(=O)CC1C` (stereo not drawn) [4-methyl-5-pentyloxolan-2-one] are the same in pest or weed control at 10000 µg/mL: 100% for the first, 100% for the second.

Compared with `CCC=C1OC(=O)c2ccccc21` [3-propylidene-2-benzofuran-1-one], `CCCCCC1=COC(=O)CC1` [5-pentyl-3,4-dihydro-2H-pyran-2-one] is higher in pest or weed control at 10000 µg/mL: 86% for the first, 97% for the second.

Compared with `CC1(C)CC=CC2(C)OC(=O)CC12` (stereo not drawn) [4,4,7a-trimethyl-3a,5-dihydro-3H-1-benzofuran-2-one], `CCCCCCC1(C)CCC(=O)O1` (stereo not drawn) [5-hexyl-5-methyloxolan-2-one] is lower in pest or weed control at 10000 µg/mL: 100% for the first, 97% for the second.

Compared with `CCCCCCCC1=COC(=O)CC1` [5-heptyl-3,4-dihydro-2H-pyran-2-one], `CCCCCCC1=COC(=O)CC1` [5-hexyl-3,4-dihydro-2H-pyran-2-one] is lower in pest or weed control at 10000 µg/mL: 100% for the first, 98% for the second.

Same assay, conditions: Aedes aegypti, β- and ε-lactones, 0.016 mg/mL; read-out: Percentage of repellence of mosquitoes landing on the warm body

`CC(C)C1OC(=O)C1(C)C` (stereo not drawn) [3,3-dimethyl-4-propan-2-yloxetan-2-one] was tested, and the pest or weed control at 16 µg/mL was 36%.

Same assay, conditions: Aedes aegypti, β- and ε-lactones, 0.4 mg/mL; read-out: Percentage of repellence of mosquitoes landing on the warm body

Going from `CC(C)C1OC(=O)C1(C)C` (stereo not drawn) [3,3-dimethyl-4-propan-2-yloxetan-2-one] to `C=CC=CC1C(=O)OC1CCCCC` (stereo not drawn) [3-buta-1,3-dienyl-4-pentyloxetan-2-one], the pest or weed control at 400 µg/mL rises from less than 40% to greater than 80%.

Same assay, conditions: Aedes aegypti, β- and ε-lactones, 10 mg/mL; read-out: Percentage of repellence of mosquitoes landing on the warm body

`CC(C)C1OC(=O)C1(C)C` (stereo not drawn) [3,3-dimethyl-4-propan-2-yloxetan-2-one] gave a pest or weed control at 10000 µg/mL of 100%.

Same assay, conditions: Aedes aegypti, γ-lactones, 0.016 mg/mL in ethanol; read-out: Percentage of repellence of mosquitoes landing on the warm body

Compared with `CC/C=C\CC/C=C/C1CCC(=O)O1` (stereo not drawn) [5-[(1E,5Z)-octa-1,5-dienyl]oxolan-2-one], `CC/C=C/CCCCC1CCC(=O)O1` (stereo not drawn) [5-[(E)-oct-5-enyl]oxolan-2-one] is lower in pest or weed control at 16 µg/mL: 52% for the first, 0% for the second.

Going from `CC/C=C\CCCCC1CCC(=O)O1` (stereo not drawn) [5-[(Z)-oct-5-enyl]oxolan-2-one] to `CCC=CCCCCCCC1CCC(=O)O1` (stereo not drawn) [5-dec-7-enyloxolan-2-one], the pest or weed control at 16 µg/mL rises from 0% to 17%.

First: C=CCCC1CCC(=O)O1 (stereo not drawn) [5-but-3-enyloxolan-2-one]
Second: CCCCC1CCC(=O)O1 (stereo not drawn) [5-butyloxolan-2-one]
The pest or weed control at 16 µg/mL of the first is higher: 57% for the first, 41% for the second.

Same assay, conditions: Aedes aegypti, γ-lactones, 0.4 mg/mL in ethanol; read-out: Percentage of repellence of mosquitoes landing on the warm body

First: CC/C=C\CC/C=C/C1CCC(=O)O1 (stereo not drawn) [5-[(1E,5Z)-octa-1,5-dienyl]oxolan-2-one]
Second: CC/C=C/CCCCC1CCC(=O)O1 (stereo not drawn) [5-[(E)-oct-5-enyl]oxolan-2-one]
The pest or weed control at 400 µg/mL of the first is lower: 65% for the first, 87% for the second.

Compared with `CC/C=C\CCCCC1CCC(=O)O1` (stereo not drawn) [5-[(Z)-oct-5-enyl]oxolan-2-one], `CCC=CCCCCCCC1CCC(=O)O1` (stereo not drawn) [5-dec-7-enyloxolan-2-one] is lower in pest or weed control at 400 µg/mL: 75% for the first, 47% for the second.

First: C=CCCC1CCC(=O)O1 (stereo not drawn) [5-but-3-enyloxolan-2-one]
Second: CCCCC1CCC(=O)O1 (stereo not drawn) [5-butyloxolan-2-one]
The pest or weed control at 400 µg/mL of the first is higher: 75% for the first, 44% for the second.

Same assay, conditions: Aedes aegypti, γ-lactones, 10 mg/mL in ethanol; read-out: Percentage of repellence of mosquitoes landing on the warm body

Compared with `CC/C=C\CC/C=C/C1CCC(=O)O1` (stereo not drawn) [5-[(1E,5Z)-octa-1,5-dienyl]oxolan-2-one], `CC/C=C/CCCCC1CCC(=O)O1` (stereo not drawn) [5-[(E)-oct-5-enyl]oxolan-2-one] is higher in pest or weed control at 10000 µg/mL: 97% for the first, 100% for the second.

Going from `CC/C=C\CCCCC1CCC(=O)O1` (stereo not drawn) [5-[(Z)-oct-5-enyl]oxolan-2-one] to `CCC=CCCCCCCC1CCC(=O)O1` (stereo not drawn) [5-dec-7-enyloxolan-2-one], the pest or weed control at 10000 µg/mL falls from 100% to 85%.

`C=CCCC1CCC(=O)O1` (stereo not drawn) [5-but-3-enyloxolan-2-one] and `CCCCC1CCC(=O)O1` (stereo not drawn) [5-butyloxolan-2-one] are the same in pest or weed control at 10000 µg/mL: 100% for the first, 100% for the second.

Same assay, conditions: Aedes aegypti, δ-lactones, 0.016 mg/mL; read-out: Percentage of repellence of mosquitoes landing on the warm body

Going from `C=CC1CCCC(=O)O1` (stereo not drawn) [6-ethenyloxan-2-one] to `CCC1CCCC(=O)O1` (stereo not drawn) [6-ethyloxan-2-one], the pest or weed control at 16 µg/mL falls from 31% to 0%.

Same assay, conditions: Aedes aegypti, δ-lactones, 0.4 mg/mL; read-out: Percentage of repellence of mosquitoes landing on the warm body

Compared with `C=CC1CCCC(=O)O1` (stereo not drawn) [6-ethenyloxan-2-one], `CCC1CCCC(=O)O1` (stereo not drawn) [6-ethyloxan-2-one] is lower in pest or weed control at 400 µg/mL: 30% for the first, 11% for the second.

Same assay, conditions: Aedes aegypti, δ-lactones, 10 mg/mL; read-out: Percentage of repellence of mosquitoes landing on the warm body

Going from `C=CC1CCCC(=O)O1` (stereo not drawn) [6-ethenyloxan-2-one] to `CCC1CCCC(=O)O1` (stereo not drawn) [6-ethyloxan-2-one], the pest or weed control at 10000 µg/mL falls from 100% to 48%.
